Columns and labels:
Assay in all cases: MIC assay, LAE
[1] = tested on: Candida tropicalis DCS 604; assay type: cell-based; settings: ppm of the active component
Procedure: (§1) The Minimal Inhibition Concentration Assay (MIC) is a 96 well liquid based assay developed for a semi-automated assessment system and performed essentially as described in (7). […] From an overnight culture […] of each strain was inoculated in one well corresponding to an approximate inoculation density of 10^3-10^4 cells/well. Media used were CASO, MRS and YM (Appendix 1). Strains were incubated at 20° C., 25° C., 37° C. and under aerobic/anaerobic conditions depending on the preferred conditions for the particular strain (Appendix 1). At time zero, after adding the AM, the optical density (O.D.) of the bacterial culture is measured at 620 nm and then again after 24 hours. […] MIC is defined as the lowest concentration of the AM that will inhibit measurable growth. A bacteriostatic effect is defined as the OD620 at 24 h being less than or equal to 20% of the growth control.

[2] = tested on: Citrobacter freundii DCS 566; assay type: cell-based
Procedure: as §1

[3] = tested on: Staphylococcus aureus DCS 630; assay type: cell-based
Procedure: as §1

Listeria innocua DCS 17 = assay type: cell-based
Procedure: as §1

[4] = tested on: Saccharomyces cerevisiae DCS 599; assay type: cell-based
Procedure: as §1

[5] = tested on: Salmonella typhimurium DCS 218; assay type: cell-based; settings: ppm of the active component
Procedure: as §1

Pichia anomala DCS 603 = assay type: cell-based
Procedure: as §1

[6] = tested on: Clostridium sporogenes (spores) DCS 541sp; assay type: cell-based; settings: ppm of the active component
Procedure: as §1

[7] = tested on: Zygosaccharomyces bailii DCS 538; assay type: cell-based
Procedure: as §1

[8] = tested on: Brochothrix thermosphacta DCS 780; assay type: cell-based
Procedure: as §1

Hafnia alvei DCS 613 = assay type: cell-based
Procedure: as §1

[9] = tested on: Bacillus licheniformis (spores) DCS 561sp; assay type: cell-based; settings: ppm of the active component
Procedure: as §1

Escherichia coli DCS 497 = assay type: cell-based
Procedure: as §1

[10] = tested on: Clostridium sporogenes (spores) DCS 808sp; assay type: cell-based; settings: ppm of the active component
Procedure: as §1

[11] = tested on: Bacillus weihenstephanensis DCS 565; assay type: cell-based
Procedure: as §1

[12] = tested on: Bacillus licheniformis DCS 561; assay type: cell-based
Procedure: as §1

[13] = tested on: Listeria monocytogenes DCS 490; assay type: cell-based
Procedure: as §1

[14] = tested on: Leuconostoc mesenteroides ss DCS 512; assay type: cell-based
Procedure: as §1

[15] = tested on: Clostridium sporogenes DCS 812; assay type: cell-based
Procedure: as §1

[16] = tested on: Lactobacilllus curvatus DCS 609; assay type: cell-based, Lactobacillus curvatus; settings: Latilactobacillus curvatus, DCS609, ppm of the active component
Procedure: as §1

[17] = tested on: Lactobacilllus sakei DCS 608; assay type: cell-based, Lactobacillus sakei; settings: Latilactobacillus sakei, DCS608, ppm of the active component
Procedure: as §1

[18] = Citrobacter freundii, DCS566, ppm of the active component
[19] = Staphylococcus aureus, DCS630, ppm of the active component
[20] = Listeria innocua, DCS17, ppm of the active component
[21] = Saccharomyces cerevisiae, DCS599, ppm of the active component
[22] = Salmonella enterica, TYPHIMURIUM
[23] = Hansenula anomala, DCS603, ppm of the active component
[24] = Zygosaccharomyces bailii, DCS538, ppm of the active component
[25] = Brochothrix thermosphacta, DCS780, ppm of the active component
[26] = Hafnia alvei, DCS613, ppm of the active component
[27] = Escherichia coli, DCS497, ppm of the active component
[28] = Bacillus mycoides, DCS565, ppm of the active component
[29] = Bacillus licheniformis, DCS561, ppm of the active component
[30] = Listeria monocytogenes, DCS490, ppm of the active component
[31] = Leuconostoc mesenteroides, SSDCS512, ppm of the active component
[32] = Clostridium sporogenes, DCS812, ppm of the active component

Compound: CCCCCCCCCCCC(=O)N[C@@H](CCCNC(=N)N)C(=O)OCC.Cl [LAE, N^α-Lauroyl-L-arginine ethyl ester monohydrochloride]
- increased lag phase [1]: 4.3 ppm
- MBC [2, 18]: 21.9 µg/mL
- MIC [2, 18]: 18.2 µg/mL
- increased lag phase ([2]; ppm of the active component): 8.1 ppm
- MBC [3, 19]: 18.3 µg/mL
- MIC [3, 19]: 14.6 µg/mL
- increased lag phase ([3]; ppm of the active component): 14.6 ppm
- MBC (Listeria innocua DCS 17; [20]): 21.9 µg/mL
- MIC (Listeria innocua DCS 17; [20]): 12.1 µg/mL
- increased lag phase (Listeria innocua DCS 17; ppm of the active component): 5.4 ppm
- MBC [4, 21]: 14.6 µg/mL
- MIC [4, 21]: 14.6 µg/mL
- increased lag phase ([4]; ppm of the active component): 14.6 ppm
- MBC [5, 22]: 49.2 µg/mL
- MIC [5, 22]: 32.8 µg/mL
- increased lag phase [5]: 12.1 ppm
- MBC (Pichia anomala DCS 603; [23]): 111 µg/mL
- MIC (Pichia anomala DCS 603; [23]): 73.8 µg/mL
- increased lag phase (Pichia anomala DCS 603; ppm of the active component): 32.8 ppm
- MBC ([6]; Clostridium sporogenes): 14.6 µg/mL
- MIC ([6]; Clostridium sporogenes): 9.7 µg/mL
- increased lag phase [6]: 9.7 ppm
- MBC [7, 24]: 6.5 µg/mL
- MIC [7, 24]: 6.5 µg/mL
- increased lag phase ([7]; ppm of the active component): 4.3 ppm
- MBC [8, 25]: 9.7 µg/mL
- MIC [8, 25]: 8.1 µg/mL
- increased lag phase ([8]; ppm of the active component): 4.3 ppm
- MBC (Hafnia alvei DCS 613; [26]): 27.4 µg/mL
- MIC (Hafnia alvei DCS 613; [26]): 21.9 µg/mL
- increased lag phase (Hafnia alvei DCS 613; ppm of the active component): 10.5 ppm
- MBC ([9]; Bacillus licheniformis): 61.5 µg/mL
- MIC ([9]; Bacillus licheniformis): 6.5 µg/mL
- increased lag phase [9]: 6.5 ppm
- MBC (Escherichia coli DCS 497; [27]): 21.9 µg/mL
- MIC (Escherichia coli DCS 497; [27]): 21.9 µg/mL
- increased lag phase (Escherichia coli DCS 497; ppm of the active component): 18.2 ppm
- MBC ([10]; Clostridium sporogenes): 18.3 µg/mL
- MIC ([10]; Clostridium sporogenes): 8.1 µg/mL
- increased lag phase [10]: 8.1 ppm
- MBC [11, 28]: 14.6 µg/mL
- MIC [11, 28]: 14.6 µg/mL
- increased lag phase ([11]; ppm of the active component): 10.5 ppm
- MBC [12, 29]: 14.6 µg/mL
- MIC [12, 29]: 14.6 µg/mL
- increased lag phase ([12]; ppm of the active component): 4.3 ppm
- MBC [13, 30]: 12.2 µg/mL
- MIC [13, 30]: 12.1 µg/mL
- increased lag phase ([13]; ppm of the active component): 8.1 ppm
- MBC [14, 31]: > 166 µg/mL
- MIC [14, 31]: 41 µg/mL
- increased lag phase ([14]; ppm of the active component): 32.8 ppm
- MBC [15, 32]: 9.7 µg/mL
- MIC [15, 32]: 9.7 µg/mL
- increased lag phase ([15]; ppm of the active component): 9.7 ppm
- MBC [16]: > 166 µg/mL
- MIC [16]: 32.8 µg/mL
- MBC [17]: > 166 µg/mL
- MIC [17]: 32.8 µg/mL

— patent publication US20100284985A1, “Composition” (Danisco A/S, priority 2007, published 2010)
